Laboratory results taken from US7452556B2, “Compositions for the treatment of pilosebaceous gland inflammations comprising aluminum fluoride” (Medidermis Ltd., priority 2001, dated 2008).

Columns and labels:
[1] = cited from earlier work
[2] = tested on: Folliculitis inflammatory lesion
Description: A Folliculitis (FIGS. 3a, 3b and 3c) inflammatory lesion on the left posterior thigh […] of a subject was treated by AIF trihydrate at 0.5% concentration dissolved in water only. The subject applied each 3-4 h the solution as a spray. Pictures were performed in a room with artificial constant light by a Sony Mavica FD95 digital camera at a resolution of 1600×1200 pixels.
(§1) Area of inflammation was measured by image analysis techniques as follows:
Pictures (FIGS. 3a, 3b and 3c) were saved as a BMP file and loaded into Scion Imaging software v. 4.02 (NIH, USA). All three pictures were concomitantly analyzed on the same frame. First, pictures in gray scale were smoothed, manually thresholded, turned into a binary picture and the results transformed to an outline filter. The area of each outlined papule was measured by the software (n=3) and data was further plotted and statistically analyzed by student's t-test in FIG. 4 (Sigmaplot, Jandel, Java).

[3] = tested on: Acne Vulgaris inflammatory lesion
Description: An Acne Vulgaris (FIGS. 1a, 1b and 1c) inflammatory lesion on the right cheek of a subject was treated by AIF trihydrate at 0.5% concentration dissolved in water only. The subject applied each 3-4 h the solution as a spray. Pictures were performed in a room with artificial constant light by a Sony Mavica FD95 digital camera at a resolution of 1600×1200 pixels.
as §1
Pictures (FIGS. 1a, 1b and 1c) were saved as a BMP file and loaded into Scion Imaging software v. 4.02 (NIH, USA). All three pictures were concomitantly analyzed on the same frame. First, pictures in gray scale were smoothed, manually thresholded, turned into a binary picture and the results transformed to an outline filter. The area of each outlined papule was measured by the software (n=3) and data was further plotted and statistically analyzed by student's t-test in FIG. 2 (Sigmaplot, Jandel, Java).

[4] = 0.5% in water only, spray each 3-4 h, left posterior thigh, subject, FIGS. 3a-3c
[5] = 0.5% in water only, spray each 3-4 h, right cheek, subject, FIGS. 1a-1c

Row | Molecule | incidence of severe side effects ([1]; oral, Strauss J S et al, J Am Acad Dermatol, 2001) [%] | side effect: dryness ([1]; systemic retinoid) [%] | side effect: hair loss ([1]; systemic retinoid) [%] | side effect: liver function disorder ([1]; systemic retinoid) [%] | side effect: musculo-skeletal pains ([1]; systemic retinoid) [%] | side effect: photosensitivity ([1]; systemic retinoid) [%] | final resolution of the papule, time [2, 4] [h] | rapid fading of the papule, time from start of treatment [2, 4] [h] | heals the inflamed papule within (area of lesion, image analysis) ([2]; FIG. 4, n=3 area measurements, p<0.01 at 10 h and p<0.001 at 18 h) | final resolution of the papule, time [3, 5] [h] | rapid fading of the papule, time from start of treatment [3, 5] [h] | heals the inflamed papule within (area of lesion, image analysis) ([3]; FIG. 2, n=3 area measurements, p<0.01 at 14 h and at 26 h)
1 | CC1=C(/C=C/C(C)=C/C=C/C(C)=C\C(=O)O)C(C)(C)CCC1 [isotretinoin] | 35 | 100 | 30 | 5 | 15 | 90 | – | – | – | – | – | –
2 | Aluminum fluoride [AIF trihydrate] | – | – | – | – | – | – | 18 | 10 | about 18 h | 26 | 14 | about 24 h
